Where two headings read alike, the source gives them in different places.
Legend:
Format in all cases: cell-based
[1] = tested on: M-HeLa cells (human cervix epithelioid carcinoma); assay: MTT cytotoxicity test, M-HeLa; details: Homo sapiens, M-HeLa; MTT test; 24 h incubation per text, 48 h per method
Source text: (§1) For the experiments, we used tumor cell cultures M-HeLa clone 11 (epithelioid carcinoma of the cervix, subline HeLa., clone M-HeLa), HuTu 80 (human duodenal adenocarcinoma) and MCF7 (human breast adenocarcinoma (pleural fluid)) from the collection of the Institute of Cytology, Russian Academy of Sciences (St. Petersburg); human liver cells (Chang liver) from the collection of the Research Institute of Virology at the Russian Academy of Medical Sciences (Moscow); and SH-SY5Y (neuroblastoma)from the Laboratory of Tumor Cell Genetics at the Scientific Research Institute of Carcinogenesis N.N. Blokhin National Medical Research Center of Oncology.
(§2) The cytotoxic effect on cells was determined using the colorimetric method of cell proliferation—the MTT test. NADP-H-dependent cellular oxidoreductase enzymes can, under certain conditions, reflect the number of viable cells. These enzymes are able to reduce the tetrazolium dye (MTT)-3-(4,5-dimethylthiazol-2-yl)-2,5-diphenyl-tetrazolium bromide to insoluble blue-violet formazan, which crystallizes inside the cell. The amount of formazan formed is proportional to the number of cells with active metabolism.
(§3) Cells were seeded on a 96-well Nunc plate at a concentration of 5 × 10^3 cells per well in a volume of 100 μL of medium and cultured in a CO2 incubator at 37 °C until a monolayer was formed. […] After 48 h, the nutrient medium was removed from the plates and 100 µL of the nutrient medium without serum with MTT at a concentration of 0.5 mg/mL was added and incubated for 4 h at 37 °C. Formazan crystals were […] 100 µL of DMSO in each well. Optical density was recorded at 540 nm on an in vitro logic microplate reader (Russia). The experiments for all compounds were repeated in triplicate.
(§4) IC50 values were estimated using the Quest Graph IC50 Calculator (AAT Bioquest, Inc., Sunnyvale, CA, USA) (Version 2022) (accessed on 25 June 2022).

[2] = tested on: MCF-7 cells (human breast adenocarcinoma); assay: MTT cytotoxicity test, MCF-7; details: Homo sapiens, MCF7, MTT test; 24 h incubation per text, 48 h per method
Description: as §2
Formazan crystals were added to 100 µL of DMSO in each well. Optical density was recorded at 540 nm on an in vitro logic microplate reader (Russia). The experiments for all compounds were repeated in triplicate.

[3] = tested on: HuTu 80 cells (human duodenal adenocarcinoma); assay: MTT cytotoxicity test, HuTu 80; details: Homo sapiens
Source text: as §1, §2, §3, §4

[4] = tested on: SH-SY5Y cells (neuroblastoma); assay: MTT cytotoxicity test, SH-SY5Y; details: Homo sapiens, SH-SY5Y; MTT test; 24 h incubation per text, 48 h per method
Source text: as §1, §2, §3, §4

[5] = HuTu80, MTT test, 24 h incubation per text, 48 h per method, read-out: IC50, HuTu 80
[6] = HuTu80, read-out: IC50, HuTu 80

Measured: IC50

CC(C)OP(=O)(OC(C)C)C(c1cc(C(C)(C)C)c(O)c(C(C)(C)C)c1)c1ccc(NC(=O)Nc2ccccc2)nc1NC(=O)Nc1ccccc1 (stereo not drawn) [5c]
> 70 µM: [1] | [2] | [3]; [5] | [4]

COc1ccc(NC(=O)Nc2ccc(C(c3cc(C(C)(C)C)c(O)c(C(C)(C)C)c3)P(=O)(OC)OC)c(NC(=O)Nc3ccc(OC)cc3)c2)cc1 (stereo not drawn) [15a]
> 70 µM: [1] | [2] | [3]; [6] | [4]

CC(C)(C)c1cc(C(c2ccc(NC(=O)Nc3ccc(Cl)cc3)nc2NC(=O)Nc2ccc(Cl)cc2)P(=O)(Oc2ccccc2)Oc2ccccc2)cc(C(C)(C)C)c1O (stereo not drawn) [11d]
> 70 µM: [1] | [2] | [3]; [6] | [4]

CC(C)(C)c1cc(C(c2ccc(NC(=O)Nc3ccc(Cl)cc3)cc2NC(=O)Nc2ccc(Cl)cc2)P(=O)(Oc2ccccc2)Oc2ccccc2)cc(C(C)(C)C)c1O (stereo not drawn) [16d]
> 70 µM: [1] | [2] | [3]; [6] | [4]

Cc1ccc(NC(=O)Nc2ccc(C(c3cc(C(C)(C)C)c(O)c(C(C)(C)C)c3)P(=O)(OC(C)C)OC(C)C)c(NC(=O)Nc3ccc(C)cc3)n2)cc1 (stereo not drawn) [9c]
> 70 µM: [1] | [2] | [3]; [5] | [4]

COP(=O)(OC)C(c1cc(C(C)(C)C)c(O)c(C(C)(C)C)c1)c1ccc(NC(=O)Nc2cccc(C)c2)nc1NC(=O)Nc1cccc(C)c1 (stereo not drawn) [8a]
> 70 µM: [1] | [2] | [3]; [6] | [4]

COc1ccc(NC(=O)Nc2ccc(C(c3cc(C(C)(C)C)c(O)c(C(C)(C)C)c3)P(=O)(Oc3ccccc3)Oc3ccccc3)c(NC(=O)Nc3ccc(OC)cc3)c2)cc1 (stereo not drawn) [15d]
> 70 µM: [1] | [2] | [3]; [6] | [4]

Cc1cccc(NC(=O)Nc2ccc(C(c3cc(C(C)(C)C)c(O)c(C(C)(C)C)c3)P(=O)(Oc3ccccc3)Oc3ccccc3)c(NC(=O)Nc3cccc(C)c3)n2)c1 (stereo not drawn) [8d]
> 70 µM: [1] | [2] | [3]; [6] | [4]

CC(C)(C)c1cc(C(c2ccc(NC(=S)Nc3ccccc3)nc2N)P(=O)(Oc2ccccc2)Oc2ccccc2)cc(C(C)(C)C)c1O (stereo not drawn) [18d]
> 70 µM: [1] | [2] | [3]; [6] | [4]

CC(C)(C)c1cc(C(c2ccc(NC(=O)Nc3ccc([N+](=O)[O-])cc3)cc2NC(=O)Nc2ccc([N+](=O)[O-])cc2)P(=O)(Oc2ccccc2)Oc2ccccc2)cc(C(C)(C)C)c1O (stereo not drawn) [17d]
> 70 µM: [1] | [2] | [3]; [6] | [4]

COP(=O)(OC)C(c1cc(C(C)(C)C)c(O)c(C(C)(C)C)c1)c1ccc(NC(=S)Nc2ccccc2)nc1N (stereo not drawn) [18a]
> 70 µM: [1] | [2] | [3]; [6] | [4]

CCOP(=O)(OCC)C(c1cc(C(C)(C)C)c(O)c(C(C)(C)C)c1)c1ccc(NC(=O)Nc2ccccc2)cc1NC(=O)Nc1ccccc1 (stereo not drawn) [6b]
> 70 µM: [1] | [2] | [3]; [6] | [4]

COc1ccc(NC(=O)Nc2ccc(C(c3cc(C(C)(C)C)c(O)c(C(C)(C)C)c3)P(=O)(OC(C)C)OC(C)C)c(NC(=O)Nc3ccc(OC)cc3)n2)cc1 (stereo not drawn) [10c]
> 70 µM: [1] | [2] | [3]; [5] | [4]

CCOP(=O)(OCC)C(c1cc(C(C)(C)C)c(O)c(C(C)(C)C)c1)c1ccc(NC(=S)Nc2ccccc2)cc1NC(=S)Nc1ccccc1 (stereo not drawn) [19b]
> 70 µM: [1] | [2] | [3]; [6] | [4]

Cc1cccc(NC(=O)Nc2ccc(C(c3cc(C(C)(C)C)c(O)c(C(C)(C)C)c3)P(=O)(Oc3ccccc3)Oc3ccccc3)c(NC(=O)Nc3cccc(C)c3)c2)c1 (stereo not drawn) [13d]
> 70 µM: [1] | [2] | [3]; [6] | [4]

CCOP(=O)(OCC)C(c1cc(C(C)(C)C)c(O)c(C(C)(C)C)c1)c1ccc(NC(=O)Nc2ccc(C)cc2)nc1NC(=O)Nc1ccc(C)cc1 (stereo not drawn) [9b]
> 70 µM: [1] | [2] | [3]; [6] | [4]

CC(C)(C)c1cc(C(c2ccc(NC(=O)Nc3ccc([N+](=O)[O-])cc3)nc2NC(=O)Nc2ccc([N+](=O)[O-])cc2)P(=O)(Oc2ccccc2)Oc2ccccc2)cc(C(C)(C)C)c1O (stereo not drawn) [12d]
> 70 µM: [1] | [2] | [3]; [6] | [4]

CC(C)(C)c1cc(C(c2ccc(NC(=S)Nc3ccccc3)cc2NC(=S)Nc2ccccc2)P(=O)(Oc2ccccc2)Oc2ccccc2)cc(C(C)(C)C)c1O (stereo not drawn) [19d]
> 70 µM: [1] | [2] | [3]; [6] | [4]

COP(=O)(OC)C(c1cc(C(C)(C)C)c(O)c(C(C)(C)C)c1)c1ccc(NC(=O)Nc2ccccc2)nc1NC(=O)Nc1ccccc1 (stereo not drawn) [5a]
> 70 µM: [1] | [2] | [3]; [6] | [4]

CC(C)(C)c1cc(C(c2ccc(NC(=O)Nc3ccccc3)nc2NC(=O)Nc2ccccc2)P(=O)(Oc2ccccc2)Oc2ccccc2)cc(C(C)(C)C)c1O (stereo not drawn) [5d]
> 70 µM: [1] | [2] | [3]; [6] | [4]

CC(C)(C)c1cc(C(c2ccc(NC(=O)Nc3ccccc3)cc2NC(=O)Nc2ccccc2)P(=O)(Oc2ccccc2)Oc2ccccc2)cc(C(C)(C)C)c1O (stereo not drawn) [6d]
> 70 µM: [1] | [2] | [3]; [6] | [4]

Cc1cccc(NC(=O)Nc2ccc(C(c3cc(C(C)(C)C)c(O)c(C(C)(C)C)c3)P(=O)(OC(C)C)OC(C)C)c(NC(=O)Nc3cccc(C)c3)n2)c1 (stereo not drawn) [8c]
> 70 µM: [1] | [2] | [3]; [5] | [4]

COP(=O)(OC)C(c1cc(C(C)(C)C)c(O)c(C(C)(C)C)c1)c1ccc(NC(=O)Nc2ccc(C)cc2)nc1NC(=O)Nc1ccc(C)cc1 (stereo not drawn) [9a]
> 70 µM: [1] | [2] | [3]; [6] | [4]

CC(C)OP(=O)(OC(C)C)C(c1cc(C(C)(C)C)c(O)c(C(C)(C)C)c1)c1ccc(NC(=O)Nc2ccc([N+](=O)[O-])cc2)nc1NC(=O)Nc1ccc([N+](=O)[O-])cc1 (stereo not drawn) [12c]
> 70 µM: [1] | [2] | [3]; [6] | [4]

Cc1ccc(NC(=O)Nc2ccc(C(c3cc(C(C)(C)C)c(O)c(C(C)(C)C)c3)P(=O)(Oc3ccccc3)Oc3ccccc3)c(NC(=O)Nc3ccc(C)cc3)c2)cc1 (stereo not drawn) [14d]
> 70 µM: [1] | [2] | [3]; [6] | [4]

COP(=O)(OC)C(c1cc(C(C)(C)C)c(O)c(C(C)(C)C)c1)c1ccc(NC(=O)Nc2ccc(Cl)cc2)cc1NC(=O)Nc1ccc(Cl)cc1 (stereo not drawn) [16a]
> 70 µM: [1] | [2] | [3]; [6] | [4]

COP(=O)(OC)C(c1cc(C(C)(C)C)c(O)c(C(C)(C)C)c1)c1ccc(NC(=O)Nc2ccccc2)cc1NC(=O)Nc1ccccc1 (stereo not drawn) [6a]
> 70 µM: [1] | [2] | [3]; [6] | [4]

Source: paper PMC10454409, “Hybrids of Sterically Hindered Phenols and Diaryl Ureas: Synthesis, Switch from Antioxidant Activity to ROS Generation and Induction of Apoptosis” (International Journal of Molecular Sciences, 2023)
